# According to patent US20240247080A1, “GLP1/GIP/NPY2 RECEPTOR TRIPLE AGONISTS” (Boehringer Ingelheim International GmbH, priority 2022, published 2024):
# pEC50: −log10 of the molar value. Where two headings read alike, the source gives them in different places. Starred links: 1 amine or outer side, 2 acyl side, 3 side chain; linkers in the order of their positions; H or OH if unused. Non-standard residues stand in square brackets, D forms with d. Groups on a side chain read outwards from the residue. No end group written: not given here. *: point of attachment. C20 diacid = O=C(O)CCCCCCCCCCCCCCCCCCC(=O)*; C18 diacid = O=C(O)CCCCCCCCCCCCCCCCC(=O)*; γGlu = O=C(O)[C@H](CCC(=O)[*:2])N[*:1]; εLys = N[C@@H](CCCCN[*:1])C(=O)[*:2]; Tle = CC(C)(C)[C@H](N)C(=O)O; AEEA = NCCOCCOCC(=O)O; Aib = CC(C)(N)C(=O)O; Ahx = NCCCCCC(=O)O
# Assays:
# Format in all cases: cell-based
# Settings in all cases: CreLuc reporter gene assay
# hNPY2R = target: T1, hNPY2R (Homo sapiens, UniProt P49146); assay: hNPY2R CreLuc reporter gene assay in 0.5% and 100% plasma
# T1 construct: expressed in transfected cells; host or cells: HEK-293 cells carrying a CRE-luciferase reporter gene
# T1 sequence (P49146 1-381): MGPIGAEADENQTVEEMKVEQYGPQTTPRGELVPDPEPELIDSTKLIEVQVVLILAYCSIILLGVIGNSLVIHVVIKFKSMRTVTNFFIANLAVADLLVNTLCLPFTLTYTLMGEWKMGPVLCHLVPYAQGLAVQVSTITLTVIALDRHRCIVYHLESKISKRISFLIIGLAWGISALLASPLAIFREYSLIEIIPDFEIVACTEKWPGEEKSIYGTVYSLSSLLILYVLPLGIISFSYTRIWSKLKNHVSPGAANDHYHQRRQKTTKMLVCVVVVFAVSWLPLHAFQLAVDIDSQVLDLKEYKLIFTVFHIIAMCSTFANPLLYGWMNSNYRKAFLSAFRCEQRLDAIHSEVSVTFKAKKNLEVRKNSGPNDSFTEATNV
# Procedure, shortened: (§1)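 HEK cells (GLP-1R, NPY2R) or CHO cells (GIPR) carrying a CRE-luciferase reporter, incubated 4 h at 37 °C with peptides in HBSS/20 mM HEPES pH 7.4 plus 0.5% human plasma, or in 100% plasma. Luminescence read; EC50 from 8-point variable-slope sigmoid fits.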
# hGLP1R = target: T2, hGLP1R (Homo sapiens, UniProt P43220); assay: hGLP1R CreLuc reporter gene assay in 0.5% and 100% plasma
# T2 construct: expressed in transfected cells; host or cells: HEK-293 cells carrying a CRE-luciferase reporter gene
# T2 sequence (P43220 24-463): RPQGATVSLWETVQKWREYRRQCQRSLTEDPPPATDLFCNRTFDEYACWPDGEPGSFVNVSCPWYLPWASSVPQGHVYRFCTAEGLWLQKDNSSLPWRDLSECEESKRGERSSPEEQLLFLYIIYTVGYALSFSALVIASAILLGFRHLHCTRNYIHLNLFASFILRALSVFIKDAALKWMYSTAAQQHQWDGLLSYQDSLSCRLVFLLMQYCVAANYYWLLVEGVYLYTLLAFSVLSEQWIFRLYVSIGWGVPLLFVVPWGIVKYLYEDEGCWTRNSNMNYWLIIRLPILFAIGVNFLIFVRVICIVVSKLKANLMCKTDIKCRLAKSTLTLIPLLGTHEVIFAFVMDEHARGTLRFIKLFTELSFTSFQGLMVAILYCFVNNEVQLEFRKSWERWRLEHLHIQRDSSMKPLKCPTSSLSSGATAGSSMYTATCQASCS
# Procedure, shortened: as §1
# hGIPR = target: T3, hGIPR (Homo sapiens, UniProt P48546); assay: hGIPR CreLuc reporter gene assay in 0.5% and 100% plasma
# T3 construct: expressed in transfected cells; host or cells: CHO cells carrying a CRE-luciferase reporter gene
# T3 sequence (P48546 22-466): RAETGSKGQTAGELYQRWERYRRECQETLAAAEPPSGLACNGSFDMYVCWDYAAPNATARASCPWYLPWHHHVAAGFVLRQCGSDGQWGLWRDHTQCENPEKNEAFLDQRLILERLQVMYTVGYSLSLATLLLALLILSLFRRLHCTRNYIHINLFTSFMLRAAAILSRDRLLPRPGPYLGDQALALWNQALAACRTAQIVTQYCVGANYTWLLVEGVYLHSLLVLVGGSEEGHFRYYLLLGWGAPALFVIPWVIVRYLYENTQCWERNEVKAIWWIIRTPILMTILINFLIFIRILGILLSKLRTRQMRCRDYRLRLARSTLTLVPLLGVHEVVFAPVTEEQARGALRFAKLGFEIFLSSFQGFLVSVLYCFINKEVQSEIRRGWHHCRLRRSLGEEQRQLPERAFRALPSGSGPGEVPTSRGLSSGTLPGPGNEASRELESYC
# Procedure, shortened: as §1
# [1] = 0.5% human plasma, read-out: hNPY2R 0.5% hP
# [2] = 100% human plasma, read-out: hNPY2R 100% hP
# [3] = 0.5% human plasma, read-out: hGLP1R 0.5% hP
# [4] = 0.5% human plasma, read-out: hGIPR 0.5% hP
# [5] = 100% human plasma, read-out: hGIPR 100% hP
# [6] = 100% human plasma, read-out: hGLP1R 100% hP
pEC50 (hNPY2R; [1]),pEC50 (hNPY2R; [2]),pEC50 (hGLP1R; [3]),pEC50 (hGIPR; [4]),pEC50 (hGIPR; [5]),pEC50 (hGLP1R; [6]),Substance
7.97,7.41,9.96,9.47,8.84,,"Y[Aib]EGTFTSDYSI[Aib]LEKQAQ[Aib]AFVEWLIK([AEEA-AEEA-γGlu-γGlu-γGlu-γGlu-γGlu-C20 diacid])GGPSSPASLRHYYNWLTRQRY-NH2 [Compound 120, Y-Aib-E-G-T-F-T-S-D-Y-S-I-Aib-L-E-K-Q-A-Q-Aib-A-F-V-E-W-L-I-K(1,3)-GGPSSPASLRHYYNWLTRQRY-NH2.C20DA-gGlu-gGlu-gGlu-gGlu-gGlu-OEG-OEG(1,2)]"
7.85,7.43,9.77,9.29,8.61,,"H-Y[Aib]EGTFTSDYSI[Aib]LEKQAQ[Aib]AFVEWLIK([εLys-γGlu-γGlu-γGlu-γGlu-γGlu-γGlu-γGlu-C20 diacid])GGPSEGASLRHYYNWLTRQRY-NH2 [Compound 288, Y-Aib-E-G-T-F-T-S-D-Y-S-I-Aib-L-E-K-Q-A-Q-Aib-A-F-V-E-W-L-I-K(1,3)-GGPSEGASLRHYYNWLTRQRY-NH2.C20DA-gGlu-gGlu-gGlu-gGlu-gGlu-gGlu-gGlu-eLys(1,2)]"
,7.34,9.85,9.66,,,"H-Y[Aib]EGTFTSDYSI[Aib]LEKQAQ[Aib]AFVEWLIK([εLys-γGlu-γGlu-γGlu-γGlu-γGlu-γGlu-C20 diacid])GGPSSGASIRHYYNWLTRQRY-NH2 [Compound 132, Y-Aib-E-G-T-F-T-S-D-Y-S-I-Aib-L-E-K-Q-A-Q-Aib-A-F-V-E-W-L-I-K(1,3)-GGPSSGASIRHYYNWLTRQRY-NH2.C20DA-gGlu-gGlu-gGlu-gGlu-gGlu-gGlu-eLys(1,2)]"
7.83,,9.60,9.00,,,"H-Y[Aib]EGTFTSDYSI[Aib]LEKQAQ[Aib]AFVQWLIK([εLys-γGlu-γGlu-γGlu-γGlu-γGlu-γGlu-C20 diacid])GGPEEGASLRHYYNWLTRQRY-NH2 [Compound 89, Y-Aib-E-G-T-F-T-S-D-Y-S-I-Aib-L-E-K-Q-A-Q-Aib-A-F-V-Q-W-L-I-K(1,3)-GGPEEGASLRHYYNWLTRQRY-NH2.C20DA-gGlu-gGlu-gGlu-gGlu-gGlu-gGlu-eLys(1,2)]"
,7.56,10.22,9.72,9.08,8.77,"H-Y[Aib]EGTFTSDYSI[Aib]LEKQAQ[Aib]AFVQWLIK([AEEA-AEEA-γGlu-γGlu-γGlu-γGlu-γGlu-C20 diacid])GGPSSGASLRHYYNWLTRQRY-NH2 [Compound 112, Y-Aib-E-G-T-F-T-S-D-Y-S-I-Aib-L-E-K-Q-A-Q-Aib-A-F-V-Q-W-L-I-K(1,3)-GGPSSGASLRHYYNWLTRQRY-NH2.C20DA-gGlu-gGlu-gGlu-gGlu-gGlu-OEG-OEG(1,2)]"
7.78,,9.51,9.57,,,"Y[Aib]EGTFTSDYSI[Aib]LEKQAE[Aib]AFVEWLIK([AEEA-AEEA-γGlu-γGlu-γGlu-γGlu-C18 diacid])GGPSSGASLRHYYNWLTRQRY-NH2 [Compound 150, Y-Aib-E-G-T-F-T-S-D-Y-S-I-Aib-L-E-K-Q-A-E-Aib-A-F-V-E-W-L-I-K(1,3)-GGPSSGASLRHYYNWLTRQRY-NH2.C18DA-gGlu-glu-Glu-Glu-OEG-OEG(1,2)]"
7.82,7.19,9.49,9.51,8.69,,"H-Y[Aib]EGTFTSDYSI[Aib]LEKAAQ[Aib]AFVEWLIK([εLys-γGlu-γGlu-γGlu-γGlu-γGlu-γGlu-C20 diacid])GGPSSGASLRHYYNWLTRQRY-NH2 [Compound 136, Y-Aib-E-G-T-F-T-S-D-Y-S-I-Aib-L-E-K-A-A-Q-Aib-A-F-V-E-W-L-I-K(1,3)-GGPSSGASLRHYYNWLTRQRY-NH2.C20DA-gGlu-gGlu-gGlu-gGlu-gGlu-gGlu-eLys(1,2)]"
7.88,7.30,10.05,9.89,8.86,,"H-Y[Aib]EGTFTSDYSI[Aib]LEKQAQ[Aib]AFVQWLIK([γGlu-γGlu-γGlu-γGlu-γGlu-C18 diacid])GGPESGASLRHYYNWLTRQRY-NH2 [Compound 53, Y-Aib-E-G-T-F-T-S-D-Y-S-I-Aib-L-E-K-Q-A-Q-Aib-A-F-V-Q-W-L-I-K(1,3)-GGPESGASLRHYYNWLTRQRY-NH2.C18DA-gGlu-gGlu-gGlu-gGlu-gGlu(1,2)]"
7.96,,8.58,8.99,,,"H-Y[Aib]EGTFTSDYSI[Aib]LEKQAQ[Aib]AFVEWLIK([γGlu-γGlu-γGlu-γGlu-γGlu-γGlu-C20 diacid])GGGSEYVSLRHYYNWLTRQRY-NH2 [Compound 65, Y-Aib-E-G-T-F-T-S-D-Y-S-I-Aib-L-E-K-Q-A-Q-Aib-A-F-V-E-W-L-I-K(1,3)-GGGSEYVSLRHYYNWLTRQRY-NH2.C20DA-gGlu-gGlu-gGlu-gGlu-gGlu-gGlu(1,2)]"
7.85,,9.80,9.32,,,"H-Y[Aib]EGTFTSDYSI[Aib]LEKQAQ[Aib]AFVEWLIK([εLys-γGlu-γGlu-γGlu-γGlu-γGlu-γGlu-C20 diacid])GGPSSGASLRHY[Tle]NWLTRQRY-NH2 [Compound 133, Y-Aib-E-G-T-F-T-S-D-Y-S-I-Aib-L-E-K-Q-A-Q-Aib-A-F-V-E-W-L-I-K(1,3)-G-G-P-S-S-G-A-S-L-R-H-Y-Tle-N-W-L-T-R-Q-R-Y-NH2.C20DA-gGlu-gGlu-gGlu-gGlu-gGlu-gGlu-eLys(1,2)]"
,7.00,9.64,9.24,8.49,,"H-Y[Aib]EGTFTSDYSI[Aib]LEKQAQ[Aib]AFVEWLIK([Ahx-γGlu-γGlu-γGlu-γGlu-γGlu-C20 diacid])GGPSEGASLRHYYNWLTRQRY-NH2 [Compound 301, Y-Aib-E-G-T-F-T-S-D-Y-S-I-Aib-L-E-K-Q-A-Q-Aib-A-F-V-E-W-L-I-K(1,3)-GGPSEGASLRHYYNWLTRQRY-NH2.C20DA-gGlu-gGlu-gGlu-gGlu-gGlu-AHX(1,2)]"
7.07,,9.92,9.44,,,"H-Y[Aib]EGTFTSDYSI[Aib]LEKQAQ[Aib]AFVEWLIK([εLys-γGlu-γGlu-γGlu-γGlu-γGlu-γGlu-C20 diacid])GGPSSGASLRHY[Aib]NR[Aib]TRQRY-NH2 [Compound 18, Y-Aib-E-G-T-F-T-S-D-Y-S-I-Aib-L-E-K-Q-A-Q-Aib-A-F-V-E-W-L-I-K(1,3)-G-G-P-S-S-G-A-S-L-R-H-Y-Aib-N-R-Aib-T-R-Q-R-Y-NH2.C20DA-gGlu-gGlu-gGlu-gGlu-gGlu-gGlu-eLys(1,2)]"
8.10,7.34,9.68,9.51,,7.99,"H-Y[Aib]EGTFTSDYSI[Aib]LEKQAQ[Aib]AFVQWLIK([εLys-γGlu-γGlu-γGlu-γGlu-γGlu-C20 diacid])GGPSEYASLRHYYNWLTRQRY-NH2 [Compound 189, Y-Aib-E-G-T-F-T-S-D-Y-S-I-Aib-L-E-K-Q-A-Q-Aib-A-F-V-Q-W-L-I-K(1,3)-GGPSEYASLRHYYNWLTRQRY-NH2.C20DA-gGlu-gGlu-gGlu-gGlu-gGlu-eLys(1,2)]"
